Patent US12448389B2, “BRM targeting compounds and associated methods of use” (Prelude Therapeutics Incorporated, priority 2020, dated 2025)

Tests used:
SMARCA4-HiBiT = target: T1, SMARCA4-HiBiT (Homo sapiens, UniProt P51532); assay: SMARCA4 HiBiT degradation assay in HeLa cells; assay type: cell-based; conditions: 18 hours incubation; for DC50: read-out: HeLa-HiBit-SM4 DC50; for Dmax: HeLa, read-out: HeLa-HiBit-SM4 Dmax (%)
T1 construct: SMARCA4-HiBiT knock-in Hela monoclonal cell (CS3023226); host or cells: HeLa monoclonal knock-in line (CRISPR HiBiT knock-in at the endogenous locus, heterozygous)
T1 sequence (P51532 whole entry): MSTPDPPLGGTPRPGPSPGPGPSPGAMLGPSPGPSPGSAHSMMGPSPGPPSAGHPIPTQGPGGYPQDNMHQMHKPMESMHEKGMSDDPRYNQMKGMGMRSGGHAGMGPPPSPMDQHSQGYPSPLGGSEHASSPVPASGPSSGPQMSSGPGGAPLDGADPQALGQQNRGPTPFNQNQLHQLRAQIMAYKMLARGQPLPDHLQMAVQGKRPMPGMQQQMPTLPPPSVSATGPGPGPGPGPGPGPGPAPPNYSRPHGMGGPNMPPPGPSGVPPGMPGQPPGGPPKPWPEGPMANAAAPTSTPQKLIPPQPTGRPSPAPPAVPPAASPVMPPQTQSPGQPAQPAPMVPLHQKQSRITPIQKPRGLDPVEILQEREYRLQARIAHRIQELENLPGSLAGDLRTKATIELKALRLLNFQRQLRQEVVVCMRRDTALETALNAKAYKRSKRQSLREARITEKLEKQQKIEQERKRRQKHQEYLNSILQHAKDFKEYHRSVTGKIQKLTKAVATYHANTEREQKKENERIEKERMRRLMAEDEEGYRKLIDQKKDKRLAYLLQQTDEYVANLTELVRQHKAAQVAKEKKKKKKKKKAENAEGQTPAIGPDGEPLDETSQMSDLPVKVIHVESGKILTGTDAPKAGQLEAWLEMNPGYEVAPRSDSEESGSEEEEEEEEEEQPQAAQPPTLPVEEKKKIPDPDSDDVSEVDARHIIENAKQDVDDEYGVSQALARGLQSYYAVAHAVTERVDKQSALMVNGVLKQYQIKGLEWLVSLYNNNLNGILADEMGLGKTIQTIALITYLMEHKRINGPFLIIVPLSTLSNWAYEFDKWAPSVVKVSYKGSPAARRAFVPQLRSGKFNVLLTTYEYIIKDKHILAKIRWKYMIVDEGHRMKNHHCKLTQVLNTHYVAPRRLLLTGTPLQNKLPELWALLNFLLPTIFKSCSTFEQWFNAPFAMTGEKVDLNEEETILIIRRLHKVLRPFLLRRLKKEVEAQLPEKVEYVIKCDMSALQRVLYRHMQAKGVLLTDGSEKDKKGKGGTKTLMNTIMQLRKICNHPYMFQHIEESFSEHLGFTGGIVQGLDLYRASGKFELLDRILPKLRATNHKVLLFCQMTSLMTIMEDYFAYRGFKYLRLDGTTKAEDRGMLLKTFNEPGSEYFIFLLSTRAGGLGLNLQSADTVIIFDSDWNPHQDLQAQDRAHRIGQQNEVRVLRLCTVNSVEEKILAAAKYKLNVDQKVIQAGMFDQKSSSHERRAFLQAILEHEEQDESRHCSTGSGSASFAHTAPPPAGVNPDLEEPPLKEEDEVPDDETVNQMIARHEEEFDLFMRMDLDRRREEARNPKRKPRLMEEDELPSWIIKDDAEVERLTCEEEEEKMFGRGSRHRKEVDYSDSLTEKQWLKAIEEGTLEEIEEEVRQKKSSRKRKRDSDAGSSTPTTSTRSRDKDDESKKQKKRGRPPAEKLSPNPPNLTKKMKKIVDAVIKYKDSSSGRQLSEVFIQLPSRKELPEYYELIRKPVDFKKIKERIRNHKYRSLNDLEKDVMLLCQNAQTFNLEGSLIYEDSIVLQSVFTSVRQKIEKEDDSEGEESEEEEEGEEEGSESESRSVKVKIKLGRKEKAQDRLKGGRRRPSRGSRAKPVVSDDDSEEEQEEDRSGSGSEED
Method in brief: (§1)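 HeLa monoclonal lines with heterozygous HiBiT knock-in were seeded at 2500 cells/well in EMEM with 10% FBS and treated with compound for 18 h at 37 °C. Remaining tagged protein was measured by Nano-Glo HiBiT lytic luminescence after 30–60 min at RT, and values came from curve fitting.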

SMARCA2-HiBiT = target: T2, SMARCA2-HiBiT (Homo sapiens, UniProt P51531); assay: SMARCA2 HiBiT degradation assay in HeLa cells; assay type: cell-based; conditions: 18 hours incubation; for DC50: read-out: HeLa_HiBit-SM2 DC50; for Dmax: HeLa, read-out: HeLa-HiBit-SM2 Dmax (%)
T2 construct: SMARCA2-HiBiT knock-in Hela monoclonal cell (CS302366); host or cells: HeLa monoclonal knock-in line (CRISPR HiBiT knock-in at the endogenous locus, heterozygous)
T2 sequence (P51531 whole entry): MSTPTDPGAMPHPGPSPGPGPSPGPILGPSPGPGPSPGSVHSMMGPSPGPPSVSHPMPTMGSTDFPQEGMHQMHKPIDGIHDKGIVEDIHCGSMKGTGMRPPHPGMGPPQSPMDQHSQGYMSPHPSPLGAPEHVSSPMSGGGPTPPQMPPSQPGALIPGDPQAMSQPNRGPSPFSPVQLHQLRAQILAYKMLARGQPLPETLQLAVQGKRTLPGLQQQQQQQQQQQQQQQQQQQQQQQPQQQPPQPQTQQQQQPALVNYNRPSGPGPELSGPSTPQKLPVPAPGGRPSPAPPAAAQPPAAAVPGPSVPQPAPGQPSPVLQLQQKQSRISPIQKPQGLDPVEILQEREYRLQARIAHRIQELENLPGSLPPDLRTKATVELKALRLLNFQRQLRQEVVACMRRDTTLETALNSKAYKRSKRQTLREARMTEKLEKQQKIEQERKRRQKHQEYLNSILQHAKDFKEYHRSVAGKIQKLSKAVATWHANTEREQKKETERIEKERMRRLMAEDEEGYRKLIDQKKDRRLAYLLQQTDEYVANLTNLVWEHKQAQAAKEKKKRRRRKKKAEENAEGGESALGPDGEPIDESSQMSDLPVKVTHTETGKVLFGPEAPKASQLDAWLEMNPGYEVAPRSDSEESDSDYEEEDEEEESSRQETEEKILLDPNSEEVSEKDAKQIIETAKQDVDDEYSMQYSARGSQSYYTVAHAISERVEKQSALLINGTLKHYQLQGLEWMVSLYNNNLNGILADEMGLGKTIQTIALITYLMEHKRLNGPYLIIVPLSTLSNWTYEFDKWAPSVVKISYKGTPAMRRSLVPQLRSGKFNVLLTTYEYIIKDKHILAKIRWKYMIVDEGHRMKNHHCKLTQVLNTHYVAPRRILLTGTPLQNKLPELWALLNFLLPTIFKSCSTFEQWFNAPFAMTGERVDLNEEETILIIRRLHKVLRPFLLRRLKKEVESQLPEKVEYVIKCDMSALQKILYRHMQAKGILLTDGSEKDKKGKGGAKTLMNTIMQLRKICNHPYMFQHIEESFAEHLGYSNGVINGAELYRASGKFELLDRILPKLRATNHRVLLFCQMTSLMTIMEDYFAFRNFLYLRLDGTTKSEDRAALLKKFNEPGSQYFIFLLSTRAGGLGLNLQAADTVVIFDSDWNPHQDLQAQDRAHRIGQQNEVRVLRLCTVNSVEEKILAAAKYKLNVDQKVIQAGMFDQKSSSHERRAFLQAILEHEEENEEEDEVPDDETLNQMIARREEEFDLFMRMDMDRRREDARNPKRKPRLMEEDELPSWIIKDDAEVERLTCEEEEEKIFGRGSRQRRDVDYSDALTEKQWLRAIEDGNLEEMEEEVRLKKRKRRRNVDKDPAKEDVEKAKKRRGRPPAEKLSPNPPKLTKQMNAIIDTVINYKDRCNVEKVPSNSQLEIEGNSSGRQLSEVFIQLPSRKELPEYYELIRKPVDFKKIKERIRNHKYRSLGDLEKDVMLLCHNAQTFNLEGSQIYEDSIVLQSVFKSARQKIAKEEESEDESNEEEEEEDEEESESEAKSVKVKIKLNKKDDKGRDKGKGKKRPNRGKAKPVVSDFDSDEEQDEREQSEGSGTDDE
Method in brief: as §1

Row | SMILES | DC50 (SMARCA4-HiBiT) | Dmax (SMARCA4-HiBiT) | DC50 (SMARCA2-HiBiT) | Dmax (SMARCA2-HiBiT)
1 | O=C1CCC(N2C(=O)c3ccc(N4CC[C@@H]5CN(C6CCC(C(=O)N7CCN8c9cc(-c%10ccccc%10O)nnc9NC[C@H]8C7)CC6)C[C@H]5C4)cc3C2=O)C(=O)N1 (stereo partly drawn) [Example 97, 2-(2,6-dioxopiperidin-3-yl)-5-((3aS,7aS)-2-(4-((S)-2-(2-hydroxyphenyl)-6,6a,7,8,9,10-hexahydro-5H-pyrazino[1′,2′:4,5]pyrazino[2,3-c]pyridazine-8-carbonyl)cyclohexyl)octahydro-5H-pyrrolo[3,4-c]pyridin-5-yl) isoindoline-1,3-dione] | 10 to 100 nM | 50 to 75% | < 10 nM | 75 to 85%
2 | O=C1CCC(N2C(=O)c3ccc(N4CCC(CN5CCC(NC6CCN7c8cc(-c9ccccc9O)nnc8NCC7C6)CC5)CC4)cc3C2=O)C(=O)N1 (stereo not shown) [Example 253, 2-(2,6-dioxopiperidin-3-yl)-5-(4-((4-((2-(2-hydroxyphenyl)-6,6a,7,8,9,10-hexahydro-5H-pyrido[1′,2′:4,5]pyrazino[2,3-c]pyridazin-8-yl)amino)piperidin-1-yl)methyl)piperidin-1-yl) isoindoline-1,3-dione] | 10 to 100 nM | 50 to 75% | < 10 nM | 50 to 75%
3 | O=C1CCC(N2C(=O)c3ccc(N4CC[C@H](CN5CCC(CN6CCN7c8cc(-c9ccccc9O)nnc8NC[C@H]7C6)CC5)[C@H](F)C4)cc3C2=O)C(=O)N1 (stereo partly drawn) [Example 185, 2-(2,6-dioxopiperidin-3-yl)-5-[(3S,4R)-3-fluoro-4-[[4-[[(10S)-4-(2-hydroxyphenyl)-1,5,6,8,12-pentazatricyclo[8.4.0.02,7]tetradeca-2(7),3,5-trien-12-yl]methyl]piperidin-1-yl]methyl]piperidin-1-yl]isoindole-1,3-dione] | < 10 nM | 50 to 75% | < 10 nM | 75 to 85%
4 | O=C1CCC(N2C(=O)c3ccc(Nc4cccc(N5CCC(N6CCN7c8cc(-c9ccccc9O)nnc8NC[C@H]7C6)CC5)c4)cc3C2=O)C(=O)N1 (stereo partly drawn) [Example 244, 2-(2,6-dioxopiperidin-3-yl)-5-((3-(4-((S)-2-(2-hydroxyphenyl)-5,6,6a,7,9,10-hexahydro-8H-pyrazino[1′,2′:4,5]pyrazino[2,3-c]pyridazin-8-yl)piperidin-1-yl)phenyl)amino)isoindoline-1,3-dione] | 10 to 100 nM | 75 to 85% | < 10 nM | 75 to 85%
5 | O=C1CCC(N2C(=O)c3ccc(N4CCC(CNC5CCC(CN6CCN7c8cc(-c9ccccc9O)nnc8NC[C@H]7C6)CC5)CC4)cc3C2=O)C(=O)N1 (stereo partly drawn) [Example 167, 2-(2,6-dioxopiperidin-3-yl)-5-[4-[[[4-[[(10S)-4-(2-hydroxyphenyl)-1,5,6,8,12-pentazatricyclo[8.4.0.02,7]tetradeca-2,4,6-trien-12-yl]methyl]cyclohexyl]amino]methyl]piperidin-1-yl] isoindole-1,3-dione] | < 10 nM | > 85% | < 10 nM | > 85%
6 | O=C1CCC(N2C(=O)c3ccc(CN4CCC(CN5CCC(CN6CCN7c8cc(-c9ccccc9O)nnc8NC[C@H]7C6)CC5)CC4)cc3C2=O)C(=O)N1 (stereo partly drawn) [Example 187, 2-(2,6-dioxopiperidin-3-yl)-5-[[4-[[4-[[(10S)-4-(2-hydroxyphenyl)-1,5,6,8,12-pentazatricyclo[8.4.0.02,7]tetradeca-2,4,6-trien-12-yl]methyl]piperidin-1-yl]methyl]piperidin-1-yl]methyl]isoindole-1,3-dione] | < 10 nM | 50 to 75% | < 10 nM | 50 to 75%
7 | O=C1CCC(N2C(=O)c3ccc(N4CC[C@H](CN5CCC(C(=O)N6CCN7c8cc(-c9ccccc9O)nnc8NC[C@H]7C6)CC5)[C@@H](F)C4)cc3C2=O)C(=O)N1 (stereo partly drawn) [Example 202, 2-(2,6-dioxopiperidin-3-yl)-5-[(3R,4R)-3-fluoro-4-[[4-[(10S)-4-(2-hydroxyphenyl)-1,5,6,8,12-pentazatricyclo [8.4.0.02,7]tetradeca-2(7),3,5-trien-12-carbonyl]piperidin-1-yl]methyl]piperidin-1-yl]isoindole-1,3-dione] | 10 to 100 nM | 75 to 85% | < 10 nM | > 85%
8 | O=C1CCC(N2C(=O)c3ccc(N4CCC(CNC56CC(CN7CCN8c9cc(-c%10ccccc%10O)nnc9NC[C@H]8C7)(C5)C6)CC4)cc3C2=O)C(=O)N1 (stereo partly drawn) [Example 134, 2-(2,6-dioxopiperidin-3-yl)-5-(4-(((3-(((S)-2-(2-hydroxyphenyl)-5,6,6a,7,9,10-hexahydro-8H-pyrazino[1′,2′:4,5]pyrazino[2,3-c]pyridazin-8-yl)methyl)bicyclo[1.1.1]pentan-1-yl)amino)methyl)piperidin-1-yl)isoindoline-1,3-dione] | < 10 nM | 50 to 75% | < 10 nM | 75 to 85%
9 | O=C1CCC(N2C(=O)c3ccc(Nc4ccc(N5CCC(N6CCN7c8cc(-c9ccccc9O)nnc8NC[C@H]7C6)CC5)cc4)cc3C2=O)C(=O)N1 (stereo partly drawn) [Example 240, 2-(2,6-dioxopiperidin-3-yl)-5-((4-(4-((S)-2-(2-hydroxyphenyl)-5,6,6a,7,9,10-hexahydro-8H-pyrazino[1′,2′:4,5]pyrazino[2,3-c]pyridazin-8-yl)piperidin-1-yl)phenyl)amino) isoindoline-1,3-dione] | < 10 nM | 75 to 85% | < 10 nM | 75 to 85%
10 | O=C1CCC(N2C(=O)c3cccc(N4CCC(OCCN5CCC(N6CCN7c8cc(-c9ccccc9O)nnc8NC[C@H]7C6)CC5)CC4)c3C2=O)C(=O)N1 (stereo partly drawn) [Example 67, 2-(2,6-dioxopiperidin-3-yl)-4-(4-(2-(4-((S)-2-(2-hydroxyphenyl)-5,6,6a,7,9,10-hexahydro-8H-pyrazino[1′,2′:4,5]pyrazino[2,3-c]pyridazin-8-yl)piperidin-1-yl)ethoxy)piperidin-1-yl)isoindoline-1,3-dione] | < 10 nM | 50 to 75% | < 10 nM | 50 to 75%
11 | CC(C)(C)C(=O)OCN1C(=O)CCC(N2C(=O)c3cccc(N4CCC(N5CCC(N6CCN7c8cc(-c9ccccc9O)nnc8NC[C@H]7C6)CC5)CC4)c3C2=O)C1=O (stereo partly drawn) [Example 123, (3-(4-(4-((S)-2-(2-hydroxyphenyl)-5,6,6a,7,9,10-hexahydro-811-pyrazino [1′,2′:4,5]pyrazino[2,3-c]pyridazin-8-yl)-[1,4′-bipiperidin]-1′-yl)-1,3-dioxoisoindolin-2-yl)-2,6-dioxopiperidin-1-yl)methyl pivalate] | < 10 nM | 75 to 85% | < 10 nM | 75 to 85%
12 | O=C1CCC(N2C(=O)c3ccc(N4CCC(F)(F)C(CN5C[C@@H]6[C@H](C5)[C@H]6CN5CCN6c7cc(-c8ccccc8O)nnc7NC[C@H]6C5)C4)cc3C2=O)C(=O)N1 (stereo partly drawn) [Example 55, 5-(4,4-difluoro-3-(((1R,5S,6r)-6-(((S)-2-(2-hydroxyphenyl)-5,6,6a,7,9,10-hexahydro-8H-pyrazino[1′,2′:4,5]pyrazino[2,3-c]pyridazin-8-yl)methyl)-3-azabicyclo[3.1.0]hexan-3-yl)methyl)piperidin-1-yl)-2-(2,6-dioxopiperidin-3-yl)isoindoline-1,3-dione] | 10 to 100 nM | 75 to 85% | 10 to 100 nM | 50 to 75%
13 | O=C1CCC(N2C(=O)c3ccc(N4CCC(O)(CN5CCC(CN6CCN7c8cc(-c9ccccc9O)nnc8NC[C@H]7C6)CC5)CC4)cc3C2=O)C(=O)N1 (stereo partly drawn) [Example 50, 2-(2,6-dioxopiperidin-3-yl)-5-(4-hydroxy-4-((4-(((S)-2-(2-hydroxyphenyl)-5,6,6a,7,9,10-hexahydro-8H-pyrazino[1′,2′:4,5]pyrazino[2,3-c]pyridazin-8-yl)methyl)piperidin-1-yl)methyl)piperidin-1-yl)isoindoline-1,3-dione] | < 10 nM | 75 to 85% | < 10 nM | > 85%
14 | C[C@@H]1CN(CC2CCN(c3ccc4c(c3)C(=O)N(C3CCC(=O)NC3=O)C4=O)CC2)CCN1C(=O)N1CCN2c3cc(-c4ccccc4O)nnc3NC[C@H]2C1 (stereo partly drawn) [Example 115, 2-(2,6-dioxopiperidin-3-yl)-5-(4-(((R)-4-((S)-2-(2-hydroxyphenyl)-6,6a,7,8,9,10-hexahydro-5H-pyrazino[1′,2′:4,5]pyrazino[2,3-c]pyridazine-8-carbonyl)-3-methyl-piperazin-1-yl)methyl)piperidin-1-yl)isoindoline-1,3-dione] | < 10 nM | 50 to 75% | < 10 nM | 50 to 75%
15 | O=C1CCC(N2C(=O)c3ccc(N4CCO[C@H](CN5C[C@@H]6[C@H](C5)[C@H]6CN5CCN6c7cc(-c8ccccc8O)nnc7NC[C@H]6C5)C4)cc3C2=O)C(=O)N1 (stereo partly drawn) [Example 52, 2-(2,6-dioxopiperidin-3-yl)-5-((R)-2-(((1R,5S,6S)-6-(((S)-2-(2-hydroxyphenyl)-5,6,6a,7,9,10-hexahydro-8H-pyrazino[1′,2′:4,5]pyrazino[2,3-c]pyridazin-8-yl)methyl)-3-azabicyclo[3.1.0]hexan-3-yl)methyl)morpholino)isoindoline-1,3-dione] | < 10 nM | 75 to 85% | < 10 nM | > 85%
16 | N#CC1(CN2CCC(CN3CCN4c5cc(-c6ccccc6O)nnc5NC[C@H]4C3)CC2)CCN(c2ccc3c(c2)C(=O)N(C2CCC(=O)NC2=O)C3=O)CC1 (stereo partly drawn) [Example 179, 1-[2-(2,6-dioxopiperidin-3-yl)-1,3-dioxoisoindol-5-y]-4-[[4-[[(10S)-4-(2-hydroxyphenyl)-1,5,6,8,12-pentazatricyclo[8.4.0.02,7]tetradeca-2,4,6-trien-12-yl]methyl]piperidin-1-yl]methyl]piperidine-4-carbonitrile] | < 10 nM | 50 to 75% | < 10 nM | 50 to 75%
